# Measurements taken from patent US20050020544A1, “Bicyclic CB2 cannabinoid receptor ligands” (priority 2002, published 2005).
# Like-named read-outs stand apart in the source and are kept apart here.
# Experiments:
# human CB1 receptor = biological target: T1, human CB1 receptor (Homo sapiens, UniProt P21554); test: biochemical; format: binding
# T1 construct: purchased Perkin Elmer/NEN; host or cells: HEK-293 cells, stably transfected (membranes)
# In short: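 Displacement of [3H]CP55940 from membranes of HEK-293 cells stably expressing human CB1, in 50 mM Tris-HCl, 2.5 mM EDTA, 5 mM MgCl2, 1 mg/ml BSA, pH 7.4, 0.1% DMSO; 1.5 h at 30° C, then filtration.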
# human CB2 receptor = human CB2 receptor (Homo sapiens, UniProt P34972); test: biochemical; format: binding; set-up: purchased Perkin Elmer/NEN; host or cells: CHO cells, stably transfected (membranes); details: for CB2/CB1 affinity ratio: IC50 CB1/IC50 CB2; for IC50: displacement of [3H]WIN 55212-2, hCB2 CHO membranes
# In short: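 Displacement of 0.8 nM [^3H]WIN 55212-2 from hCB2-transfected CHO membranes (25 μg protein) was measured in HEPES buffer pH 7.4 with MgCl2, EDTA and BSA, 40 min at 30 °C. Non-specific binding was defined with 10 μM CP 55940, then samples were filtered and β-counted. IC50 was extrapolated from log concentration vs % binding.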
# Female Balb/c mice = test system: Female Balb/c mice; set-up: maximal reduction in paw edema: dose or concentration left out as unconfirmed; details: for maximal reduction in paw thickness (MOE) / dose at which the maximal effect was observed: i.p.; for maximal reduction in paw thickness (MOE): 3 hours after carrageenan, at the dose of maximal effect; for dose at which the maximal effect was observed: paw thickness
# Procedure: The purpose of this study is to test in vivo the anti-inflammatory activity of the compounds in paw edema induced by injection of 1% carrageenan in the animal hind paw. Female Balb/c mice (20 g average body weight, Harlan, Israel) are anesthetized with a combination of xylazine and pentobarbitone diluted in sterile saline, 15 and 6 mg/kg i.p. respectively. Anesthetized mice are injected subcutaneously, in the subplantar region of one (right) paw with 0.05 ml of 1% w/v Carrageenan in sterile water. […] The test compounds, including known anti-inflammatory controls, are dissolved in CREMOPHOR EL®:ethanol and further diluted 1:20 or 1:50 in sterile saline prior to i.p. injection that takes place immediately before the carrageenan injection. Three hours after injection the animals are resedated following the previously described procedure. Paw thickness is measured using a dial thickness gauge (Spring-dial, constant low pressure gauge, Mitutoyo, TG/L-1, 0.01 mm) and paw volume is measured using a plethysmometer (model #7150, Ugo Basile, Italy). Paw Edema is expressed as the difference between the right treated and the left untreated paws of the same animal, either as Δ Paw Volume (ΔPV) in millimeters cube or as Δ Paw Thickness (ΔPT) in millimeters. Each group comprises at least 10 animals. […] At the end of the study, animals are euthanized with an i.p. injection of 100 mg/kg pentobarbitone.
# The differences among various treatment groups are analyzed by analysis of variance (ANOVA) followed by post-hoc Fisher test. A value of p<0.05 is considered to be statistically significant.
# For sake of comparison, known anti-inflammatory drugs such as Celecoxib and Dexamethasone yield respectively in the range of relevant doses 7% and 26% reduction in paw thickness at 0.1 mg/kg, 16% and 31% at 0.25 mg/kg and 24% and 33% at 0.5 mg/kg. […] It should be kept in mind that these commercially available drugs display serious side effects that prevent chronic uses without complementary protective medication.
# Male Sprague Dawley rats = test: Inflammatory pain: carrageenan paw edema in rats, thermal and mechanical stimuli; format: in vivo, rat; details: for ΔForce (tactile stimulus) / ΔLT (thermal stimulus): three hours
# In short: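 Male Sprague Dawley rats (~200 g) with carrageenan-inflamed paw, tested before and 3 h after injection. Thermal withdrawal latency measured by Hargreaves plantar test at intensity 50, and mechanical threshold by dynamic plantar aesthesiometer. Values are inflamed minus non-inflamed paw differences at 0 and 3 h (ΔLT, ΔForce).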
# [1] = displacement of [3H]CP55940, hCB1 HEK-293 membranes, read-out: CB1 IC50
# Sequence of human CB2 receptor (P34972 whole entry): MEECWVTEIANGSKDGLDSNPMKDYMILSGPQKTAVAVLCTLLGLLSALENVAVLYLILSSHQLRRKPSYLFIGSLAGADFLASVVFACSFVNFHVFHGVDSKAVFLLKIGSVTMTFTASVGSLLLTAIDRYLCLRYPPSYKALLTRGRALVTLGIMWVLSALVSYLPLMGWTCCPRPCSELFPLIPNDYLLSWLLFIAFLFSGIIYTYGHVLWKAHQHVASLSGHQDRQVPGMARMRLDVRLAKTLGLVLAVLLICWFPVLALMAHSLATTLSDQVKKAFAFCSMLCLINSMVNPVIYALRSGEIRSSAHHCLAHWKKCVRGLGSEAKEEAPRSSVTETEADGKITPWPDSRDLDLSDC
# T1 sequence (P21554 whole entry): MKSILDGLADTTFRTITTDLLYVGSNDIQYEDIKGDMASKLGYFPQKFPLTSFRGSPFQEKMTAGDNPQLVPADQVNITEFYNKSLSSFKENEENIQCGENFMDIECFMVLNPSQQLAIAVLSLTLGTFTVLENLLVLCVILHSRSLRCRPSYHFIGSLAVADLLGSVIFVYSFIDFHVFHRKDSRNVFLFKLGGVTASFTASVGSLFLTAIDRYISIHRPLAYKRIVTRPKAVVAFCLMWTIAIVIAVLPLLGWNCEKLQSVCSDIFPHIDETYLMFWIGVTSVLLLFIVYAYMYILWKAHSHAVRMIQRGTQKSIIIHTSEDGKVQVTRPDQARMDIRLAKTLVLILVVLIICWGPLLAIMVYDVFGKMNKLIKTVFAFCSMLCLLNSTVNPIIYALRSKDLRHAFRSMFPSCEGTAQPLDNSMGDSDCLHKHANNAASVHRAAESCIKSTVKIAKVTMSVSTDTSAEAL
Compound,IC50 (human CB1 receptor; [1]) [nM],CB2/CB1 affinity ratio (human CB2 receptor),IC50 (human CB2 receptor) [nM],maximal reduction in paw thickness (MOE) (Female Balb/c mice),dose at which the maximal effect was observed (Female Balb/c mice) [mg/kg],ΔForce (tactile stimulus) (Male Sprague Dawley rats; 8 mg/kg i.p.) [g],ΔLT (thermal stimulus) (Male Sprague Dawley rats; 8 mg/kg i.p.) [s],"IC50 to CB2, fold lower than its (+) enantiomer (human CB2 receptor; compound A versus (+) enantiomer) [fold]",maximal reduction in paw edema (Female Balb/c mice; formulated in cosolvent) [%],"therapeutic index (Female Balb/c mice; paw edema, 0.5 mg/kg versus tolerated 40 mg/kg)","reversal of analgesic activity against thermal and mechanical stimuli by antagonists (Male Sprague Dawley rats; 5 mg/kg i.p. SR141716A or SR144528, 15 minutes before carrageenan and compound)",ΔForce (tactile stimulus) (Male Sprague Dawley rats; 10 mg/kg i.p.) [g],ΔLT (thermal stimulus) (Male Sprague Dawley rats; 10 mg/kg i.p.) [s],"IC50 (human CB1 receptor; CB1 IC50, displacement of [3H]CP55940, hCB1 HEK-293 membranes) [nM]",ΔForce (tactile stimulus) (Male Sprague Dawley rats; 2 mg/kg i.p.) [g]
"CCCCC(C)(C)c1cc(O)c(C2CC(=O)C3CC2C3(C)C)c(OC(=O)CCC(=O)O)c1 (single isomer, unassigned; (-)) [Compound Y, (−)-4-{4-[1,1-Dimethyl-pentyl]-2-succinate-6-hydroxy-phenyl}-6,6-dimethyl-bicyclo[3.1.1]heptan-2-one]",315,42,7.4,,,,,,,,,,,,
"CCCCCCC(C)(C)c1cc(O)c(C2CC(=O)C3CC2C3(C)C)c(O)c1 (single isomer, unassigned; (-)) [Compound A, (−)-4-[4-(1,1-Dimethyl-heptyl)2,6-dihydroxy-phenyl]-6,6-dimethyl-bicyclo[3.1.1)heptan-2-one]",27.6,,1,28%,2.5,2,1.5,10,,,,,,,
"CCCCCCC(C)(C)c1cc(O)c([C@H]2CC(=O)[C@H]3C[C@@H]2C3(C)C)c(OC(=O)CCC(=O)O)c1 [Compound R, (−)-4-{4-[1,1-Dimethyl-heptyl]-2-succinate-6-hydroxy-phenyl}-6,6-dimethyl-bicyclo[3.1.1]heptan-2-one]",41,34,1.2,31%,0.5,,,,31,at least 80,not reversed by any of the antagonists,4,0,,
"CCCCCCC(C)(C)c1cc(OC)c(C2C=C(CO)C3CC2C3(C)C)c(OC)c1 (single isomer, unassigned; (+)) [HU-308, (+) {4-[4-(1,1-dimethylheptyl)-2,6-dimethoxy-phenyl]-6,6-dimethyl-bicyclo[3.1.1]hept-2-en-2-yl}-methanol, reference compound]",,,,about 28%,0.6,,,,,,,,,3600,
"CCCCC(C)(C)c1cc(O)c(C2CC(=O)C3CC2C3(C)C)c(O)c1 (single isomer, unassigned; (-)) [Compound L, (−)-4-[4(1,1-Dimethyl-pentyl)-2,6-dihydroxy-phenyl]-6,6-dimethyl-bicyclo[3.1.1]heptan-2-one]",446,117,3.8,34%,0.25,,,,,,,,,,11
